Reference: US10519504B2, “Methods for treatment of oncological disorders using epimetabolic shifters, multidimensional intracellular molecules, or environmental influencers” (Berg LLC, priority 2009, dated 2019)

Columns and labels:
HDFa cells = assay: OCR and ECAR, SeaHorse XF analyzer; assay type: cell-based, human
Source text: (SeaHorse Biosciences Inc, North Billerica, Mass.).
In this experiment, the OCR and extracellular acidification rate (ECAR) in normal cells lines were obtained in the presence and absence of CoQ10 to determine baseline values. It was observed that in its native nutrient environment, the basal OCR rates in normal cells lines are different, and are usually a function of the physiological roles of the cells in the body. […]
Table 97 below describes the ECAR values (mpH/min) in HDFa cells in the presence or absence of CoQ10 under normoxic and hypoxic conditions at 5.5 mM and 22 mM glucose.

[1] = tested on: Pancreatic Cancer Cells (PaCa2); assay: Real-time PCR Diabetes Array; assay type: cell-based; details: 100 uM Q10
Procedure: (§1) Experiments were carried out essentially as described above.

HASMC cells = assay: Diabetes PCR array; assay type: cell-based, human
Procedure: The HK-2 and HASMC cells are normally maintained in culture at 5.5 mM glucose, which is a concentration that corresponds to a range considered normal in human blood. However, in order to simulate a diabetic environment, both cell lines were subsequently maintained at 22 mM glucose, which corresponds to the range observed in human blood associated with chronic hyperglycemia. The cells were subsequently allowed to propagate over 3 passages so that the intracellular regulation processes were functionally adapted to mimic a diabetic state. The choice of cell line was based on the physiologic influence of diabetes on renal dysfunction and progression to end-stage renal disease (ESRD) in addition to the progressive pathophysiology of a compromised cardiovascular function.
The Diabetes PCR array (SABiosciences) offers a screen for 84 genes simultaneously.
A stringent analysis of the Real time PCR data of the HASMC cell samples on the Diabetes Arrays (Cat #PAHS-023E, SABiosciences Frederick Md.) was made to exclude all results where gene regulation was not at least a two-fold regulation over HASMC normal untreated cells with a p value of less than 0.05.

[2] = tested on: Pancreatic Cancer Cells (PaCa2); assay: Real-time PCR Apoptosis Array; assay type: cell-based
Procedure: as §1

[3] = tested on: Isocitrate Dehydrogenase-1 (IDH-1); assay: Western blot, IDH1 levels; assay type: cell-based, human
Procedure: The whole cell pellets were resuspended one at a time in 1 mL of C7 buffer and transferred to labeled 15 mL tubes. The samples were then sonicated in the cold room on ice using 6 sonic pulses with the setting at #14. The samples were spun for a short time to 2500 g after sonication and the samples transferred to 2 ml tubes. The pH was verified of each sample (pH should be 9.0) using the foam remaining in the […] sample tubes.
Alkylation and reduction of samples was performed for each sample by adding 10 ul of 1M acrylamide, 25 ul of tributylphoshene and incubation for 90 mins with intermittent mixing. After incubation, 10 ul of 1M DTT was added and the tubes were spun at 20,000 g at 20 deg C. for 10 minutes and transferred the supernatant to labeled Amicon Ultra centrifugal filter units with a 10 k cut off (Millipore catalog #UFC 801024). The samples were spun for 15 minutes at 2500 g in 2 intervals. The conductivity was measured for Chaps alone as well as the samples using a conductivity meter. If the conductivity of samples is high, then 1 ml of chaps was added for buffer exchange and spun again at 2500 g until the volume was down to 250 ul. […]
The samples were processed as per standard protocols as described above and the amount of protein in each of the samples was determined by Bradford assay. […]

SCC cells = assay: Real-time PCR Heat Shock Protein Array; assay type: cell-based
Source text: The control cells were untreated cells.
Heat Shock Arrays were run for SCC cells and the data of regulated genes is summarized below in Table 13.

[4] = 100 μM Q10, Down regulated at 6 hours

COC1=C(OC)C(=O)C(C/C=C(\C)CC/C=C(\C)CC/C=C(\C)CC/C=C(\C)CC/C=C(\C)CC/C=C(\C)CC/C=C(\C)CC/C=C(\C)CC/C=C(\C)CCC=C(C)C)=C(C)C1=O [Q10, Coenzyme Q10]
ECAR (HDFa cells; 50 μM, Hypoxia (5.5 mM) glucose): 5 mpH/min | ECAR (HDFa cells; 50 μM, Hypoxia (22 mM) glucose): 6 mpH/min | ECAR (HDFa cells; 50 μM, Normoxia (5.5 mM) glucose): 6 mpH/min | ECAR (HDFa cells; 50 μM, Normoxia (22 mM) glucose): 5 mpH/min | ECAR (HDFa cells; 100 μM, Hypoxia (5.5 mM) glucose): 5 mpH/min | ECAR (HDFa cells; 100 μM, Hypoxia (22 mM) glucose): 8 mpH/min | ECAR (HDFa cells; 100 μM, Normoxia (5.5 mM) glucose): 6 mpH/min | ECAR (HDFa cells; 100 μM, Normoxia (22 mM) glucose): 5 mpH/min | ECAR (HDFa cells; HDFa, high glucose hypoxic conditions): lowering of elevated ECAR to a value that was observed in untreated normoxic conditions | ECAR values (HDFa cells; HDFa, normoxic and hypoxic, 5.5 mM and 22 mM glucose): minimal influence on ECAR values | diabetes array genes (ABCC8, ACLY, ADRB3 ... IL4R, IL6 as listed) [1]: modulated by Q10 treatment | expression of CCL5 (HASMC cells; HASMC cells): significant decrease in the expression of CCL5 | expression of AGT, CEACAM1, INSR, SELL, IL-6, TNF, CCL5 (HASMC cells; hyperglycemic HASMC cells): altered expression of genes | apoptosis array genes (ABL1, AKT1, Bcl2L1 ... TNFSF10 as listed) ([2]; 100 uM Q10): modulated by Q10 treatment | genes from the apoptosis array whose expression is regulated ([2]; 100 μM Q10, genes: CASP1, CASP6, TNF, TNFSF10, ABL1, AKT1, BclAF1, Bcl2L1, CASP2, CIDEA, FADD, LTA, TNFSF10A): A list of genes from the apoptosis array whose expression is regulated | expression of IDH1 ([3]; HDFa, nFIB, HASMC): did not demonstrate significant changes in the expression pattern | expression of IDH1 ([3]; cancer cell lines MCF-7, SKMEL28, HepG2, PaCa-2): increased expression of IDH1 | DNAJB5 Regulation (SCC cells; [4]): Down | DNAJB13 Regulation (SCC cells; [4]): Down | DNAJC4 Regulation (SCC cells; [4]): Down | DNAJC5B Regulation (SCC cells; [4]): Down | DNAJC12 Regulation (SCC cells; [4]): Down | CCT6B Regulation (SCC cells; 100 μM Q10, Down regulated at 24 hours): Down | DNAJA1 Regulation (SCC cells; 100 μM Q10, at 6 hours): Up regulated | HSPA8 Regulation (SCC cells; 100 μM Q10, at 6 hours): Up regulated | HSPH1 Regulation (SCC cells; 100 μM Q10, at 6 hours): Up regulated
